Converted amounts (≈) assume the structure as drawn.
Columns and labels:
Format in all cases: cell-based
Escherichia coli EC14 = test: MIC, standard agar-dilution assay; conditions: Escherichia coli, EC14
Description: (§1) Certain of the derivatives are active against some gram-negative bacteria, such as Pasteurella species. The MIC's in Table II were determined by standard agar-dilution assays. The MIC's in Table III were obtained using a conventional broth-dilution microtiter test.

Escherichia coli TEM = test: MIC, standard agar-dilution assay; conditions: Escherichia coli
Description: as §1

[1] = tested on: Klebsiella pneumoniae KAE; test: MIC, standard agar-dilution assay; conditions: Klebsiella pneumoniae
Description: as §1

[2] = tested on: Klebsiella pneumoniae X26; test: MIC, standard agar-dilution assay; conditions: Klebsiella pneumoniae, X26
Description: as §1

[3] = tested on: Staphylococcus aureus V41; test: MIC, standard agar-dilution assay; conditions: Staphylococcus aureus, V41
Description: as §1

[4] = tested on: Staphylococcus aureus X1.1; test: MIC, standard agar-dilution assay; conditions: Staphylococcus aureus, X1.1
Description: as §1

[5] = tested on: Streptococcus Group D X66; test: MIC, standard agar-dilution assay
Description: as §1

[6] = tested on: Streptococcus pneumoniae Park I; test: MIC, standard agar-dilution assay; conditions: Streptococcus pneumoniae
Description: as §1

[7] = tested on: Streptococcus pyogenes 9960; test: MIC, standard agar-dilution assay; conditions: 9960
Description: as §1

[8] = tested on: Streptococcus pyogenes C203; test: MIC, standard agar-dilution assay; conditions: Streptococcus pyogenes, C203
Description: as §1

[9] = tested on: Staphylococcus aureus X400; test: MIC, standard agar-dilution assay; conditions: Staphylococcus aureus, X400
Description: (§2) The MIC's in Table II were determined by standard agar-dilution assays. The MIC's in Table III were obtained using a conventional broth-dilution microtiter test.

[10] = tested on: Staphylococcus epidermidis EPI2; test: MIC, standard agar-dilution assay; conditions: Staphylococcus epidermidis, EPI2
Description: as §2

[11] = tested on: Staphylococcus aureus S13E; test: microbe, parasite or virus in culture
Description: as §2

[12] = tested on: Staphylococcus epidermidis EPI1; test: microbe, parasite or virus in culture; conditions: Staphylococcus epidermidis, EPI1
Description: as §2

[13] = tested on: Mycoplasma gallisepticum 34159; test: MIC, conventional broth-dilution microtiter test; conditions: Mycoplasmoides gallisepticum, 34159
Description: as §1

[14] = tested on: Mycoplasma gallisepticum 41313; test: MIC, conventional broth-dilution microtiter test; conditions: Mycoplasmoides gallisepticum, 41313
Description: as §1

Mycoplasma gallisepticum = test: MIC, conventional broth-dilution microtiter test; conditions: Mycoplasmoides gallisepticum
Description: as §1

Mycoplasma hyorhinis = test: MIC, conventional broth-dilution microtiter test; conditions: Mycoplasma
Description: as §1

Mycoplasma synoviae = test: MIC, conventional broth-dilution microtiter test; conditions: Mycoplasmopsis synoviae
Description: as §1

[15] = tested on: Pasteurella hemolytica 22C; test: MIC, conventional broth-dilution microtiter test; conditions: Pasteurella, 22C
Description: as §1

[16] = tested on: Pasteurella hemolytica 23C; test: MIC, conventional broth-dilution microtiter test; conditions: Pasteurella, 23C
Description: as §1

[17] = tested on: Pasteurella hemolytica 41D; test: MIC, conventional broth-dilution microtiter test; conditions: Pasteurella, 41D
Description: as §1

[18] = tested on: Pasteurella multocida 17E; test: MIC, conventional broth-dilution microtiter test; conditions: Pasteurella multocida, 17E
Description: as §1

[19] = tested on: Pasteurella multocida 22A; test: MIC, conventional broth-dilution microtiter test; conditions: Pasteurella multocida, 22A
Description: as §1

[20] = tested on: Pasteurella multocida 40G; test: MIC, conventional broth-dilution microtiter test; conditions: Pasteurella multocida, 40G
Description: as §1

[21] = tested on: Pasteurella multocida 60A; test: MIC, conventional broth-dilution microtiter test; conditions: Pasteurella multocida, 60A
Description: as §1

[22] = tested on: Pasteurella multocida 68C; test: MIC, conventional broth-dilution microtiter test; conditions: Pasteurella multocida, 68C
Description: as §1

Staphylococcus aureus = test: MIC, conventional broth-dilution microtiter test
Description: as §1

Streptococcus sp. 80 = test: MIC, conventional broth-dilution microtiter test; conditions: Streptococcus, SP.80
Description: as §1

Structure (SMILES)	MIC (Escherichia coli EC14)	MIC (Escherichia coli TEM)	MIC [1]	MIC [2]	MIC [3]	MIC [4]	MIC [5]	MIC [6]	MIC [7]	MIC [8]	MIC [9]	MIC [10]	MIC [11]	MIC [12]	MIC [13]	MIC [14]	MIC (Mycoplasma gallisepticum)	MIC (Mycoplasma hyorhinis)	MIC (Mycoplasma synoviae)	MIC [15]	also measured
CCC1OC(=O)CC(O)C(C)C(OC2OC(C)C(OC(C)=O)C(N(C)C)C2OC(C)=O)C(CCOC(=O)Cc2ccccc2)CC(C)C(=O)C=CC(C)=CC1COC(=O)Cc1ccccc1 (stereo not shown) [Compound 55, 2',4'-di-O-acetyl-20,23-di-O-phenylacetyl-20-dihydro-OMT]	> 128 µg/mL	> 128 µg/mL	> 128 µg/mL	> 128 µg/mL	8 µg/mL (≈ 8.69 µM)	8 µg/mL (≈ 8.69 µM)	8 µg/mL (≈ 8.69 µM)	1 µg/mL (≈ 1.09 µM)	8 µg/mL (≈ 8.69 µM)	2 µg/mL (≈ 2.17 µM)	8 µg/mL (≈ 8.69 µM)	2 µg/mL (≈ 2.17 µM)	4 µg/mL (≈ 4.35 µM)	4 µg/mL (≈ 4.35 µM)	3.12 µg/mL (≈ 3.39 µM)	0.78 µg/mL (≈ 0.848 µM)	0.097 µg/mL (≈ 0.105 µM)	50 µg/mL (≈ 54.3 µM)	6.25 µg/mL (≈ 6.79 µM)	> 50 µg/mL	MIC [16]: > 50 µg/mL; MIC [17]: > 50 µg/mL; MIC [18]: > 50 µg/mL; MIC [19]: > 50 µg/mL; MIC [20]: > 50 µg/mL; MIC [21]: 50 µg/mL (≈ 54.3 µM); MIC [22]: > 50 µg/mL; MIC (Staphylococcus aureus): 0.78 µg/mL (≈ 0.848 µM); MIC (Streptococcus sp. 80): 1.56 µg/mL (≈ 1.7 µM)
CCC1OC(=O)CC(O)C(C)C(OC2OC(C)C(OC(C)=O)C(N(C)C)C2OC(C)=O)C(CCOC(=O)Cc2ccccc2)CC(C)C(=O)C=CC(C)=CC1CO (stereo not shown) [Compound 54, 2',4'-Di-O-acetyl-20-O-phenylacetyl-20-dihydro-OMT]	> 128 µg/mL	16 µg/mL (≈ 20 µM)	> 128 µg/mL	4 µg/mL (≈ 4.99 µM)	2 µg/mL (≈ 2.49 µM)	2 µg/mL (≈ 2.49 µM)	4 µg/mL (≈ 4.99 µM)	0.5 µg/mL (≈ 0.623 µM)	4 µg/mL (≈ 4.99 µM)	1 µg/mL (≈ 1.25 µM)	2 µg/mL (≈ 2.49 µM)	2 µg/mL (≈ 2.49 µM)	2 µg/mL (≈ 2.49 µM)	2 µg/mL (≈ 2.49 µM)	3.12 µg/mL (≈ 3.89 µM)	0.78 µg/mL (≈ 0.973 µM)	0.048 µg/mL (≈ 0.0599 µM)	50 µg/mL (≈ 62.3 µM)	25 µg/mL (≈ 31.2 µM)	12.5 µg/mL (≈ 15.6 µM)	MIC [16]: 12.5 µg/mL (≈ 15.6 µM); MIC [17]: 12.5 µg/mL (≈ 15.6 µM); MIC [18]: 12.5 µg/mL (≈ 15.6 µM); MIC [19]: 25 µg/mL (≈ 31.2 µM); MIC [20]: 25 µg/mL (≈ 31.2 µM); MIC [21]: 6.25 µg/mL (≈ 7.79 µM); MIC [22]: 6.25 µg/mL (≈ 7.79 µM); MIC (Staphylococcus aureus): 0.78 µg/mL (≈ 0.973 µM); MIC (Streptococcus sp. 80): 3.12 µg/mL (≈ 3.89 µM)
